US20220243210A1, “ANGIOTENSIN II TYPE 1 RECEPTOR TARGETED OLIGONUCLEOTIDES AND USES THEREOF” (Ionis Pharmaceuticals, Inc., priority 2019, published 2022)

Experiments:
mouse MALAT RNA = test: MALAT RNA reduction in vivo, C57BL6/J mice, multiple dose; conditions: for ED50: IV day 0, 4, 8
Protocol: Compound Nos. 556089, 1229761, and 1229762 are described in Table 1 above. Compound Nos. 556089, 1229761, and 1229762 were tested in C57BL6/J mice. The mice were divided into groups of 4 mice each. […] The mice were then sacrificed on day 12. Heart, adipose, adrenal, kidney, and liver tissue was then collected and homogenized and RNA analysis was performed. A group of 4 mice received PBS as a negative control.
RNA was extracted from heart, adipose, adrenal, kidney, and liver tissue for real-time PCR analysis of measurement of RNA expression of MALAT using primer probe set mMALAT1 #2 (forward sequence […] (SEQ ID NO: 5); reverse sequence […] (SEQ ID NO: 6); probe sequence […] (SEQ ID NO: 7)). Results are presented as percent change of RNA, relative to PBS control, normalized to mouse GAPDH.

human MALAT1 RNA [1] = test: MALAT1 RNA reduction in HEK-AGTR1 FAP cells, free uptake, 48 hours; assay type: cell-based; conditions: 48 hours; for MALAT (% control): relative to untreated control cells
Protocol: At the end of the treatment period, total RNA was isolated from the cells and MALAT1 RNA levels were measured by quantitative real-time PCR. […] MALAT1 RNA levels were normalized according to total RNA content, as measured by RIBOGREEN®. […] The half maximal inhibitory concentration (IC50) of each modified oligonucleotide was calculated using a non-linear fit [inhibitor] vs. response-variable slope (three parameters) formula in GraphPad Prism 7.01.

HEK-APLNR FAP cells = test: IP1 accumulation negative control in HEK-APLNR FAP cells (do not express AGTR1); assay type: cell-based, human; conditions: 24 hours
Protocol: Activated AGTR1 couples to the Gαq subunit of heterotrimeric G proteins, which activates the phospholipase C (PLC) and subsequently inositol 1,4,5-trisphosphate (IP3) signaling cascade. AGTR1 signaling was measured using an IP-One Gq kit (cisbio #62IPAPEB). The kit detects the accumulation of inositol monophosphate (IP1), a stable downstream metabolite of IP3 induced by activation of a phospholipase C (PLC) cascade.
As a negative control, Compound Nos. 556089 and 1229761 were also tested in HEK293 cells expressing FAP tagged human Apelin receptor (HEK-APLNR FAP cells from Spectragenetics). […] HEK-APLNR FAP cells were cultured with Compound Nos. 556089 and 1229761, described herein above, at the concentrations detailed in Table 2 for 24 hours.

human MALAT1 RNA [2] = test: MALAT1 RNA reduction in HEK-AGTR1 FAP cells, free uptake, 24 hours; assay type: cell-based; conditions: 24 hours; for MALAT (% control): relative to untreated control cells
Protocol: At the end of the treatment period, total RNA was isolated from the cells and MALAT1 RNA levels were measured by quantitative real-time PC&. […] MALAT1 RNA levels were normalized according to total RNA content, as measured by RIBOGREEN®. Reduction of MALAT1 RNA is presented Table 3 below as percent MALAT1 RNA amount relative to untreated control (UTC) cells. The half maximal inhibitory concentration (IC50) of each modified oligonucleotide was calculated using a non-linear fit [inhibitor] vs. response—variable slope (four parameters) formula in GraphPad Prism 7.01.

Compound No. 1229762: Extended Angiotensin II peptide [N6-(2-azidoacetyl)-K]PPPAGSSPGDRVYIHPF conjugated via linker to 5′-end of MALAT1 modified oligonucleotide TCAGCATTCTAATAGCAGC
MALAT-1 RNA (% control) (mouse MALAT RNA; Adipose, 0.4 μmol/kg IV day 0, 4, 8, sacrifice day 12, relative to PBS): 58.3 % control
MALAT-1 RNA (% control) (mouse MALAT RNA; Adipose, 1.2 μmol/kg IV day 0, 4, 8, sacrifice day 12, relative to PBS): 40.1 % control
MALAT-1 RNA (% control) (mouse MALAT RNA; Adipose, 3.6 μmol/kg IV day 0, 4, 8, sacrifice day 12, relative to PBS): 20.5 % control
ED50 (mouse MALAT RNA; Adipose): 1.385 µmol/kg
MALAT-1 RNA (% control) (mouse MALAT RNA; Adrenal, 0.4 μmol/kg IV day 0, 4, 8, sacrifice day 12, relative to PBS): 87.8 % control
MALAT-1 RNA (% control) (mouse MALAT RNA; Adrenal, 1.2 μmol/kg IV day 0, 4, 8, sacrifice day 12, relative to PBS): 66.5 % control
MALAT-1 RNA (% control) (mouse MALAT RNA; Adrenal, 3.6 μmol/kg IV day 0, 4, 8, sacrifice day 12, relative to PBS): 45.2 % control
ED50 (mouse MALAT RNA; Adrenal): 1.2 µmol/kg
MALAT-1 RNA (% control) (mouse MALAT RNA; Heart, 0.4 μmol/kg IV day 0, 4, 8, sacrifice day 12, relative to PBS): 86.2 % control
MALAT-1 RNA (% control) (mouse MALAT RNA; Heart, 1.2 μmol/kg IV day 0, 4, 8, sacrifice day 12, relative to PBS): 73.4 % control
MALAT-1 RNA (% control) (mouse MALAT RNA; Heart, 3.6 μmol/kg IV day 0, 4, 8, sacrifice day 12, relative to PBS): 40 % control
ED50 (mouse MALAT RNA; Heart): 3.14 µmol/kg
MALAT-1 RNA (% control) (mouse MALAT RNA; Kidney, 0.4 μmol/kg IV day 0, 4, 8, sacrifice day 12, relative to PBS): 50.6 % control
MALAT-1 RNA (% control) (mouse MALAT RNA; Kidney, 1.2 μmol/kg IV day 0, 4, 8, sacrifice day 12, relative to PBS): 43.8 % control
MALAT-1 RNA (% control) (mouse MALAT RNA; Kidney, 3.6 μmol/kg IV day 0, 4, 8, sacrifice day 12, relative to PBS): 22.4 % control
ED50 (mouse MALAT RNA; Kidney): 3.084 µmol/kg
MALAT-1 RNA (% control) (mouse MALAT RNA; Liver, 0.4 μmol/kg IV day 0, 4, 8, sacrifice day 12, relative to PBS): 40.5 % control
MALAT-1 RNA (% control) (mouse MALAT RNA; Liver, 1.2 μmol/kg IV day 0, 4, 8, sacrifice day 12, relative to PBS): 15.1 % control
MALAT-1 RNA (% control) (mouse MALAT RNA; Liver, 3.6 μmol/kg IV day 0, 4, 8, sacrifice day 12, relative to PBS): 5.7 % control
ED50 (mouse MALAT RNA; Liver): 0.085 µmol/kg
MALAT (% control) (human MALAT1 RNA [1]; 2.7 nM): 100 % control
MALAT (% control) (human MALAT1 RNA [1]; 8.2 nM): 80 % control
MALAT (% control) (human MALAT1 RNA [1]; 24.7 nM): 69 % control
MALAT (% control) (human MALAT1 RNA [1]; 74.1 nM): 66 % control
MALAT (% control) (human MALAT1 RNA [1]; 222.2 nM): 42 % control
MALAT (% control) (human MALAT1 RNA [1]; 666.7 nM): 16 % control
MALAT (% control) (human MALAT1 RNA [1]; 2000 nM): 12 % control
MALAT (% control) (human MALAT1 RNA [1]; 6000 nM): 9 % control
MALAT (% control) (human MALAT1 RNA [1]; .10 nM): 103 % control
MALAT (% control) (human MALAT1 RNA [1]; .3 nM): 106 % control
MALAT (% control) (human MALAT1 RNA [1]; .9 nM): 101 % control
IC50 (human MALAT1 RNA [1]; MALAT1 RNA, three parameter fit): 125 nM
IP1 accumulation (HEK-APLNR FAP cells; 0.0256 nM): 723 nM
IP1 accumulation (HEK-APLNR FAP cells; 0.128 nM): 634 nM
IP1 accumulation (HEK-APLNR FAP cells; 0.64 nM): 679 nM
IP1 accumulation (HEK-APLNR FAP cells; 3.2 nM): 596 nM
IP1 accumulation (HEK-APLNR FAP cells; 16 nM): 526 nM
IP1 accumulation (HEK-APLNR FAP cells; 80 nM): 517 nM
IP1 accumulation (HEK-APLNR FAP cells; 400 nM): 609 nM
IP1 accumulation (HEK-APLNR FAP cells; 2000 nM): 576 nM
MALAT (% control) (human MALAT1 RNA [2]; 12 nM): 105 % control
MALAT (% control) (human MALAT1 RNA [2]; 37 nM): 90 % control
MALAT (% control) (human MALAT1 RNA [2]; 111 nM): 59 % control
MALAT (% control) (human MALAT1 RNA [2]; 333 nM): 36 % control
MALAT (% control) (human MALAT1 RNA [2]; 1000 nM): 41 % control
MALAT (% control) (human MALAT1 RNA [2]; 3000 nM): 22 % control
MALAT (% control) (human MALAT1 RNA [2]; 9000 nM): 24 % control
IC50 (human MALAT1 RNA [2]; MALAT1 RNA, four parameter fit): 100 nM
improvement in target knockdown in words (human MALAT1 RNA [2]; among compounds tested): greatest improvement in target knockdown
